The values below come from publication PMC6340938, “Three Novel ACE Inhibitory Peptides Isolated From Ginkgo biloba Seeds: Purification, Inhibitory Kinetic and Mechanism” (Frontiers in Pharmacology, 2019).

For data set [1] the following is noted: currently used blood pressure lowering drugs; ref Yu et al., 2018; cited from earlier work. An excerpt: As per the World Health Organization estimate, CVD accounts for the mortality of more than 17.5 million people every year. Among the important characteristics of CVD, hypertension is an essential target for the prevention and treatment of CVD ([Celermajer et al., 2012]). […] Lately, signific ...

Data set [2] deals with ACE. The settings on record: 2017, cited from earlier work; for ACE inhibitory activity (in words): peptides containing hydrophobic amino acid (Leu), ref Lee and Hur; for Inhibition mode: ref Lin et al. The source says: According to report by [Hernández-Ledesma et al. (2011)], most of the ACE inhibiting peptides were short sequences consisting of 2–12 amino acids. In addition, the activity of the ACE-inhibiting peptide was strongly related to the pres ... || The mode of inhibition of ACE-inhibiting peptides was observed generally non-competitive, competitive, and mixed.

Data set [3] deals with T1, angiotensin converting enzyme (ACE) (Homo sapiens, UniProt P12821). Kind of data set: ACE inhibitory activity, HHL substrate, RP-HPLC of hippuric acid. As to conditions: synthetic peptides, purity >95%; HHL 5 mM, borate pH 8.3, 0.3 M NaCl, 37°C, 45 min, ACE 50 mU/mL; RP-HPLC 228 nm; mean, n = 3. It counts as biochemical. On the procedure:
This test was performed as per the descriptions are given by the previous report by [O’Loughlin et al. (2014)] with some modifications. Briefly, the substrate hippuryl-histidyl-leucine (HHL, 5 mM) and samples were mixed in 0.1 M Na2[B4O5(OH)4] (pH 8.3) with 0.3 M sodium chloride. Then after, 50 μL of sample and 150 μL of the substrate were added to a centrifuge tube, mixed and allowed to stand in water at 37°C for 5 min. Subsequently, the ACE solution (50 mU/mL) was added and incubated at 37°C for 45 min. The reaction was terminated by adding 250 μL of 1M HCl and the solution was filtered through […] nylon syringe filter before being analyzed by RP-HPLC (Waters, Milford, MA, United States) on an Inertsil ODS-3 (250 × 4.6 mm, 5 μm particle size). The mobile phase comprised of distilled water: acetonitrile = 75:25 (V/V, with 0.1% TFA) with a flow rate of 0.5 mL/min and detection at 228 nm. Captopril was used as a control and the inhibitory activity (%) was determined as below:
ACE inhibitory activity (%)=[(A−B)/A]×100
where A was the peak area of hippuric acid with the sample, B was without the sample.

Data set [4] has as its target T1, angiotensin converting enzyme (ACE). Nature of the data set: Kinetics of ACE inhibition, Lineweaver-Burk plot. It counts as biochemical. As to conditions: HHL 0.5, 1, 2, 5 mM, peptide 0, 15, 30 μM. On the procedure: The kinetic inhibition model of G. biloba peptide was tested using the method of [Lin et al. (2017)]. Briefly, different concentrations of substrate HHL (0.5, 1, 2, and 5 mM) were allowed to react with ACE. The Lineweaver-Burk plot was based on the reciprocal of the reaction rate (1/v) and the substrate concentration (1/[s]). The intercepts on the X- and Y-axes represented the reciprocals of Km and Vmax, respectively.
FIGURE 5 The Lineweaver-Burk plot of the inhibitory effects on ACE activities of peptides. (A) TNLDWY, (B) RADFY, and (C) RVFDGAV. The ACE activities were determined in the absence and presence of different concentrations of the peptides (0, 15, and 30 μM).

Setting [5] is: Qula casein and hazelnut peptides, Liu et al., 2018.

Where two headings read alike, the source gives them in different places. Where no end group is shown, it is not given here.

T1 sequence (P12821 30-1306, species assumed): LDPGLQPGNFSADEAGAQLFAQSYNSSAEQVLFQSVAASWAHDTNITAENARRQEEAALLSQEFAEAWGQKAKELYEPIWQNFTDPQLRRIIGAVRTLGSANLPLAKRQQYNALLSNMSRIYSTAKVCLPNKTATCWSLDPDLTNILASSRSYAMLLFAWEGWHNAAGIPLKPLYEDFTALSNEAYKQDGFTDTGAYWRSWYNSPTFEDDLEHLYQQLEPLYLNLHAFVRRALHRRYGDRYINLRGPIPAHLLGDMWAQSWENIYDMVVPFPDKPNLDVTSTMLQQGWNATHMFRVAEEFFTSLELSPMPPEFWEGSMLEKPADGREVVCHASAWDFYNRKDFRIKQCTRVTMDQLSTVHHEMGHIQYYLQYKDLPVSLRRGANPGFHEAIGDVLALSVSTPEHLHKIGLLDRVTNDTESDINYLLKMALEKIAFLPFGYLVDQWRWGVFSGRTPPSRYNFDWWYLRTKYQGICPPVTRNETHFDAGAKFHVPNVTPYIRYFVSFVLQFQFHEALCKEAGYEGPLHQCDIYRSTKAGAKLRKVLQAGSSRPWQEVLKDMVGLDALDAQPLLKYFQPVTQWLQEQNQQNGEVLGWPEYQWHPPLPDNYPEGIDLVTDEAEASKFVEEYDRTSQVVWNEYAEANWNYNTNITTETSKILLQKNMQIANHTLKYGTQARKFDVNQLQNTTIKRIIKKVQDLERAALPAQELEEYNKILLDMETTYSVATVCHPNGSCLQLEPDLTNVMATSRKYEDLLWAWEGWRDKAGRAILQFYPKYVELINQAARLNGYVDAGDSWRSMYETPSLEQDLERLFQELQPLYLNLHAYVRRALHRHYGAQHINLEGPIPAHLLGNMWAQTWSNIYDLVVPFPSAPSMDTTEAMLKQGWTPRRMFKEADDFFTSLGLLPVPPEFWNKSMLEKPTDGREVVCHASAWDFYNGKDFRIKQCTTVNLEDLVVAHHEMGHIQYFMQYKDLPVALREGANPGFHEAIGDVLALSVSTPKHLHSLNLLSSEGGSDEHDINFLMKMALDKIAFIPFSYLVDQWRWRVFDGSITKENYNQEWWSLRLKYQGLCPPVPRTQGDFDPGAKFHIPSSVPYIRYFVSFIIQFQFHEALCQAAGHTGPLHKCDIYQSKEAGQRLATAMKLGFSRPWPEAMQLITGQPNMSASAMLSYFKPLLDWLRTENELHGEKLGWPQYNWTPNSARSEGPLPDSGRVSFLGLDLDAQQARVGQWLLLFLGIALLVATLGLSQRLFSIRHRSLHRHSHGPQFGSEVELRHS

As to `C[C@H](CS)C(=O)N1CCC[C@H]1C(=O)O` [captopril], the Adverse reactions entry in data set [1] is “cough, rash, and headache”. Consider `CCOC(=O)[C@H](CCc1ccccc1)N[C@@H](C)C(=O)N1CCC[C@H]1C(=O)O` [enalapril], for which the Adverse reactions entry in data set [1] is “cough, rash, and headache”. Turning to KPLL, the “ACE inhibitory activity (in words)” value in data set [2] is given as “appreciable ACE inhibitory activity”. As to KYIPIQ [peptide from Qula casein], the Inhibition mode result in data set [2] (peptides from Qula casein) is given as “competitive inhibition mode”.

Regarding LPLPLL [peptide from Qula casein], in data set [2] (peptides from Qula casein), the Inhibition mode entry is on record as “competitive inhibition mode”. For the compound PFPGPIPN, the Inhibition mode entry in data set [2] (setting [5]) is “non-competitive”. In data set [3], RADFY [RADFY, Arg-Ala-Asp-Phe-Tyr] registered an IC50 of 1350 µM. The “Effect on Km” value in data set [4] was “Km increased with the increasing peptide concentration”. Turning to “RVFDGAV [RVFDGAV, Arg-Val-Phe-Asp-Gly-Ala-Val]”, inhibition in data set [3] was half-maximal at 1010 µM (IC50). Moreover, the “Effect on Km” value in data set [4] is given as “Km increased with the increasing peptide concentration”. In the same order, the values of “TNLDWY [TNLDWY, Thr-Asn-Leu-Asp-Trp-Tyr]” are 1930 µM and “Km did not change significantly with peptide concentration”.

Consider VLAQYK, for which the “ACE inhibitory activity (in words)” value in data set [2] is given as “appreciable ACE inhibitory activity”.

Take YLVR [hazelnut peptide]: the Inhibition mode result in data set [2] (setting [5]) is “non-competitive”.
